{
  "source": "patent US4871774A",
  "about": "“Medical treatment” (The Boots Company PLC, priority 1987, dated 1989)",
  "test_system": "dopamine reuptake; unilateral nigrostriatal lesioned rats",
  "assay": "Ipsilateral circling behaviour of unilateral nigrostriatal (6-OHDA) lesioned rats",
  "format": "in vivo, rat (CD)",
  "settings": "methamphetamine challenge 2 mg/kg intraperitoneal; selected rats",
  "excerpt": "The two tracts of the nigrostriatal dopamine system are independent and are located on either side of the midline of the brain. When one tract is destroyed using the specific neurotoxin, 6-hydroxydopamine (6-OHDA), rats will display characteristic circling behaviour after injection of dopaminergic drugs. The direction of rotation, however, is dependent on the stimulus employed. Drugs which inhibit dopamine reuptake can only function on the unlesioned side of the brain and induce circling towards the lesion site (known as ipsilateral circling.)\nMale CD rats (250-300 g: Charles River) were anaesthetised with `Equithesin` type anaesthetic (3.2 ml/kg i.p.) and secured in a stereotaxic frame (David Kopf Small Animal Stereotaxic Instrument DKI 900). After shaving the area, a saggital incision of 1.5-2 cm was made and skin flaps dissected from the skull. A small hole was made in the skull, using a No. 6 dental burr, to allow the tip of a 30 s.w.g. stainless steel cannula to be inserted to the left substantia nigra. This was located by using the following co-ordinates, using skull landmark bregma as the zero reference point; rostral-caudal -2.8; medial-lateral +2.0; dorsal-ventral -8.0 from the surface of the dura, all co-ordinates measured in millimetres. This system of co-ordinates is a modification of the de Groot system as described by Pellegrino et al (A stereotaxic atlas of the rat brain, 2nd Edition, Plenum Press 1979). 6-Hydroxydopamine HBr (2 μg/μl, as base: Sigma Chemical Co.) was injected into the left substantia nigra at 1 μl/min; a total of 8 μg was administered over a period of 4 minutes using an infusion pump (Braun `Perfusor` ED2). After removal of the cannula, the skin flaps were joined with a single everted suture and the animal allowed to recover.\nAfter 21 days, the circling behaviour of the rats was examined. They were placed, individually, in circular plastic arenas (30 cm diameter×12 cm high) for 1 hour, with no access to food or water during this period. […] One `turn` consisted of rotation through 360° in either direction. As rats were always lesioned on the left side of the brain, anticlockwise turns were ipsilateral.\nControl values were determined for all rats by observing their spontaneous circling behaviour in the arenas without prior dosing. The mean turns per minute was always less than 1.\nThe rats were challenged with an intraperitoneal dose of methamphetamine (2 mg/kg) and immediately placed in the arenas. In these experiments circling behaviour was monitored during two periods, 0-1 h and 4-5 h after dosing. Rats giving a mean of more than 5 ipsilateral turns per minute during the first hour in response to methamphetamine were used in subsequent tests. Following selection, the rats were used in groups of 5 or more rats to test the drug under investigation.",
  "data": [
    {"smiles": "CN[C@@H](C)Cc1ccccc1", "note": "[methamphetamine, reference compound]", "values": [
      {"measurement": "mean response of the group, ipsilateral turns per minute", "value": "more than 10 ipsilateral turns per minute"}
    ]}
  ]
}
